Experiments:
Format in all cases: cell-based, Escherichia coli
E. coli CFT073 proteome = experiment: Label-free quantitative proteomics of CFT073 grown in human urine (LC-MS/MS); settings: 150 μM, 5 h
Procedure: E. coli CFT073 and CFT073ΔcpxA::cat were cultured overnight at 37°C in 5 mL of LB medium overnight with shaking. Bacteria were pelleted, washed twice in PBS, and suspended in 1 mL of PBS. Cells were then suspended in 10 mL of filter-sterilized pooled human urine obtained from 4 healthy female volunteers as described ([41]) to an OD600 of ∼0.02. Urine containing CFT073 was treated either with 150 mM compound 26 dissolved in 10 μL of DMSO to reach a final concentration of 150 μM or 10 μL of DMSO; urine containing CFT073ΔcpxA::cat was treated with 10 μL of DMSO. After 5 h of incubation, cultures were split into 5-mL aliquots, centrifuged, and the pellets were washed once with PBS and frozen at −80°C. One pellet from 4 independent experiments was used to detect CpxR-P using a Phos-Tag gel and Western blotting with an anti-MBP-CpxR antibody obtained from Thomas Silhavy as previously described ([31]). Densitometry values were determined using Photoshop 2021 (version 22.4.3), and the ratio of CpxR-P to CpxR was analyzed by one-way ANOVA adjusted for multiple comparisons using the Tukey procedure.
For label-free quantitative proteomics, cell pellets from 5 independent experiments were subjected for protein extraction followed by liquid chromatography-tandem mass spectrometry (LC-MS/MS). Sample preparation for LC-MS/MS analysis and proteomics pipeline was followed as described previously ([42]). In brief, bacteria were pelleted from urine cultures, and the pellets were solubilized in 1 mL of 8 M urea lysis buffer. Equal amounts of proteins (100 μg) were subjected for overnight trypsin/LysC (V5071; Promega) digestion. One microgram of bovine serum albumin (BSA) was added to each sample as an internal control prior to in-solution digestion. LC-MS/MS analysis was performed on a Dionex UltiMate 3000 (Thermo Fisher Scientific) system connected to a Q-Exactive HF-X mass spectrometer (Thermo Fisher Scientific). Detail settings of the LC-MS/MS analysis was described previously ([42]).
Peptide spectrum matching of MS/MS spectra was searched against the UniProt E. coli CFT073-UPEC database (TaxID 199310) using the Sequest algorithm within Proteome Discoverer version 2.4 software (Thermo Fisher Scientific). The Sequest database search was performed with the following parameters: trypsin enzyme cleavage specificity, 2 possible missed cleavages, 10 ppm mass tolerance for precursor ions, 0.02 Da mass tolerance for fragment ions. Search parameters permitted dynamic modification of methionine oxidation (+15.9949 Da) and static modification of carbamidomethylation (+57.0215 Da) on cysteine. Peptide assignments from the database search were filtered to a 1% false discovery rate. The relative label-free quantitative and comparative among the samples were performed using the Minora algorithm and Proteome Discoverer 2.4 software. Differential abundance of proteins between conditions was defined as a 1.5-fold change in relative abundance with an adjusted P value of <0.05.

CpxR-P = CpxR-P accumulation in CFT073 cultured in human urine (Phos-Tag gel, Western blot, densitometry); settings: 150 μM, 5 h, 4 experiments
Procedure: To examine whether treatment with compound 26 fostered higher accumulation of CpxR-P in CFT073 than in untreated CFT073 or CFT073ΔcpxA::cat, we cultured CFT073 in human urine in the presence of 150 μM compound 26 dissolved in DMSO, and CFT073 and CFT073ΔcpxA::cat in the presence of DMSO alone (hereafter called the CFT073 and CFT073ΔcpxA::cat controls); we chose 150 μM, as this was the approximate trough concentration of compound 6 detected in murine urine after 3 days of treatment. Briefly, the bacteria were grown in LB medium overnight, pelleted, washed, and inoculated into human urine and allowed to grow for 5 h. […] We harvested bacterial cells, made cell lysates, and detected CpxR and CpxR-P by Western blotting with an anti-MBP-CpxR antiserum as described ([31]). […] To compare the samples, the CpxR and CpxR-P bands were quantified by densitometry using samples from 4 of the independent experiments. […]
E. coli CFT073 and CFT073ΔcpxA::cat were cultured overnight at 37°C in 5 mL of LB medium overnight with shaking. […] Densitometry values were determined using Photoshop 2021 (version 22.4.3), and the ratio of CpxR-P to CpxR was analyzed by one-way ANOVA adjusted for multiple comparisons using the Tukey procedure.

CFT073 = experiment: Growth of CFT073 in human urine (OD600); settings: 150 μM, 5 h
[1] = threshold 1.5-fold, adjusted P <0.05

`N[C@@H]1CCCc2c1[nH]c1cc(F)c(F)cc21` [compound 26] was tested. Which “additional higher-abundance proteins vs CFT073 control only” value (E. coli CFT073 proteome) did it give?
The value was 27.

And the “additional higher-abundance proteins vs CFT073ΔcpxA::cat control only” value (E. coli CFT073 proteome)?
The value was 28.

And the “additional lower-abundance proteins vs CFT073 control only” value (E. coli CFT073 proteome)?
Its value is 12.

And the “additional lower-abundance proteins vs CFT073ΔcpxA::cat control only” value (E. coli CFT073 proteome)?
The value was 10.

What about the “number of higher abundance proteins vs both controls” value (E. coli CFT073 proteome; [1]) of the same compound?
Its value is 42.

What about the “number of lower abundance proteins vs both controls” value (E. coli CFT073 proteome; [1]) of the same compound?
Its value is 53.

And the “increase of the ratio of CpxR-P to CpxR vs CFT073 control” value (CpxR-P)?
The value was 1.3 fold.

And the “increase of the ratio of CpxR-P to CpxR vs CFT073ΔcpxA::cat control” value (CpxR-P)?
The value was 1.4 fold.

What about the “effect on bacterial growth” value (CFT073) of the same compound?
The value was “does not inhibit bacterial growth”.

And the “OD600 of treated CFT073, mean ± SD” value (CFT073; 5 independent experiments)?
The value was 0.52 ± 0.2.
